Experimental data published in patent publication US20250171438A1 (Agios Pharmaceuticals, Inc., priority 2022, published 2025).

target: T1, human PAH with the R408W mutation (Homo sapiens, UniProt P00439, R408W); assay: Cell Based Phenylalanine Flux Assay; conditions: A375 cells expressing human R408W PAH; 24 hrs compound incubation; 13C-Tyrosine by LC-MS; average where tested multiple times; read-out: AC50
T1 construct: expressed in transfected cells
T1 sequence (P00439 1-452 R408W): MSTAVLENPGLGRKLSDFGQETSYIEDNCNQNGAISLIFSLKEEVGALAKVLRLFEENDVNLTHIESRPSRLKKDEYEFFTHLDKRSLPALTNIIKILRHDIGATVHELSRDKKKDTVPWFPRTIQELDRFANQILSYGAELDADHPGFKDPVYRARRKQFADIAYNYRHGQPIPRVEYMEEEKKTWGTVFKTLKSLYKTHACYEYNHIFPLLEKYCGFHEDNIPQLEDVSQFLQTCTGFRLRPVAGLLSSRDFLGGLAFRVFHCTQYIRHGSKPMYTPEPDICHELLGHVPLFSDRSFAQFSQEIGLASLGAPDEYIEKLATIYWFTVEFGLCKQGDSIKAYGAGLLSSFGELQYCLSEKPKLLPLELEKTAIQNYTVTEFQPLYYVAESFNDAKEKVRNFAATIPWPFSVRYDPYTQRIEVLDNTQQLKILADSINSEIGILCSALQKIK

Row | Molecule | AC50 [nM]
1 | COCc1nc(C(F)F)c(C(=O)N2CCc3[nH]cnc3[C@H]2c2nc3ccccc3s2)o1 [Example 1807] | < 500
2 | Cn1nccc1-c1nnc(C(=O)N2CCc3[nH]cnc3[C@@H]2c2nc3ccccc3s2)o1 [Example 1946, (R)-(4-(benzo[d]thiazol-2-yl)-6,7-dihydro-1H-imidazo[4,5-c]pyridin-5(4H)-yl)(5-(1-methyl-1H-pyrazol-5-yl)-1,3,4-oxadiazol-2-yl)methanone] | 1000 to 5000
3 | Cn1cc(C(=O)N2CCc3[nH]cnc3[C@@H]2c2nc3c(F)cccc3s2)c(C(F)F)n1 [Example 1842, (R)-(3-(difluoromethyl)-1-methyl-1H-pyrazol-4-yl)(4-(4-fluorobenzo[d]thiazol-2-yl)-6,7-dihydro-1H-imidazo[4,5-c]pyridin-5(4H)-yl)methanone] | 1000 to 5000
4 | O=C(CC1CC1)N1CCc2[nH]cnc2[C@H]1c1nc2ccc(Cl)cc2[nH]1 [Example 954, (S)-1-(4-(6-chloro-1H-benzo[d]imidazol-2-yl)-6,7-dihydro-1H-imidazo[4,5-c]pyridin-5(4H)-yl)-2-cyclopropylethanone] | < 500
5 | O=C(c1nnc(-c2cn[nH]c2)o1)N1CCc2[nH]cnc2[C@H]1c1nc2c(F)cccc2s1 [Example 1863] | 500 to 1000
6 | O=C(N1CCc2[nH]cnc2[C@H]1c1nc2c(F)cccc2s1)C(F)(F)C1(O)CCC1 [Example 1655, (S)-2,2-difluoro-1-(4-(4-fluorobenzo[d]thiazol-2-yl)-6,7-dihydro-1H-imidazo[4,5-c]pyridin-5(4H)-yl)-2-(1-hydroxycyclobutyl)ethanone] | 500 to 1000
7 | O=C(c1cnc(C2CC2)o1)N1CCc2[nH]cnc2[C@H]1c1nc2c(F)cccc2s1 [Example 1329] | < 500
8 | O=C(c1ocnc1C(F)(F)F)N1CCCc2[nH]cnc2[C@@H]1c1nc2ccccc2s1 [Example 2132, (R)-(4-(benzo[d]thiazol-2-yl)-7,8-dihydroimidazo[4,5-c]azepin-5(1H,4H,6H)-yl)(4-(trifluoromethyl)oxazol-5-yl)methanone] | 1000 to 5000
9 | O=C(c1oc(C2CC2)nc1C(F)(F)F)N1CCc2[nH]cnc2[C@H]1c1nc2c(F)cccc2s1 [Example 2183, (S)-(2-cyclopropyl-4-(trifluoromethyl)oxazol-5-yl)(4-(4-fluorobenzo[d]thiazol-2-yl)-1,4,6,7-tetrahydro-5H-imidazo[4,5-c]pyridin-5-yl)methanone] | < 500
10 | Cn1ncnc1C(=O)N1CCc2[nH]cnc2[C@H]1c1nc2c(C(F)(F)F)cccc2s1 [Example 2101, (S)-(1-methyl-1H-1,2,4-triazol-5-yl)(4-(4-(trifluoromethyl)benzo[d]thiazol-2-yl)-6,7-dihydro-1H-imidazo[4,5-c]pyridin-5(4H)-yl)methanone] | 500 to 1000

The remaining lines, values ahead:

Row | AC50 [nM] | Molecule
11 | 1000 to 5000 | O=C(c1cnc(-c2ccccn2)o1)N1CCc2[nH]cnc2[C@@H]1c1nc2ccccc2s1 [Example 1318, (R)-(4-(benzo[d]thiazol-2-yl)-6,7-dihydro-1H-imidazo[4,5-c]pyridin-5(4H)-yl)(2-(pyridin-2-yl)oxazol-5-yl)methanone]
12 | < 500 | CC(F)(F)c1ncc(C(=O)N2CCc3[nH]cnc3[C@H]2c2nc3ccccc3s2)s1 [Example 1511]
13 | < 500 | Cn1cc(-c2nc(C3CC3)c(C(=O)N3CCc4[nH]cnc4[C@H]3c3nc4ccccc4s3)o2)cn1 [Example 1518]
14 | 1000 to 5000 | Cc1nc(C(C)(C)C)oc1C(=O)N1CCc2[nH]cnc2[C@@H]1c1nc2ccccc2s1 [Example 1432, (R)-(4-(benzo[d]thiazol-2-yl)-6,7-dihydro-1H-imidazo[4,5-c]pyridin-5(4H)-yl)(2-(tert-butyl)-4-methyloxazol-5-yl)methanone]
15 | 500 to 1000 | CC1(C(=O)N2CCc3[nH]cnc3[C@H]2c2nc3ccccc3s2)CC1(F)F (single isomer, unassigned) [Example 1291]
16 | 1000 to 5000 | (R)-(4-(benzo[d]thiazol-2-yl)-6,7-dihydro-1H-imidazo[4,5-c]pyridin-5(4H)-yl)(2-(1-methyl-3-(trifluoromethyl)-1H-pyrazol-4-yl)thiazol-5-yl)methanone [Example 1390]
17 | > 5000 | O=C(c1cnco1)N1CCc2[nH]cnc2[C@@H]1c1nc2ccccc2s1 [Example 1098, (R)-(4-(benzo[d]thiazol-2-yl)-6,7-dihydro-1H-imidazo[4,5-c]pyridin-5(4H)-yl)(oxazol-5-yl)methanone]
18 | < 500 | CCn1ncnc1C(=O)N1CCc2[nH]cnc2[C@H]1c1nc2ccccc2s1 [Example 1958]
19 | 1000 to 5000 | CC(C)(O)c1nc(C(F)(F)F)c(C(=O)N2CCCc3[nH]cnc3[C@H]2c2nc3ccccc3s2)o1 [Example 2123, (S)-(4-(benzo[d]thiazol-2-yl)-7,8-dihydroimidazo[4,5-c]azepin-5(1H,4H,6H)-yl)(2-(2-hydroxypropan-2-yl)-4-(trifluoromethyl)oxazol-5-yl)methanone]
20 | 1000 to 5000 | O=C(c1nccs1)N1CCc2[nH]cnc2[C@@H]1c1nc2c(Cl)cccc2s1 [Example 1202, (R)-(4-(4-chlorobenzo[d]thiazol-2-yl)-6,7-dihydro-1H-imidazo[4,5-c]pyridin-5(4H)-yl)(thiazol-2-yl)methanone]
21 | 1000 to 5000 | CN1CCN(c2nc(Br)c(C(=O)N3CCc4[nH]cnc4[C@@H]3c3nc4c(F)cccc4s3)o2)CC1 [Example 2032, (R)-(4-bromo-2-(4-methylpiperazin-1-yl)oxazol-5-yl)(4-(4-fluorobenzo[d]thiazol-2-yl)-6,7-dihydro-1H-imidazo[4,5-c]pyridin-5(4H)-yl)methanone]
22 | 500 to 1000 | O=C(c1cnc(-c2ccccn2)o1)N1CC2(CC2)c2[nH]cnc2[C@H]1c1nc2ccccc2s1 [Example 1653, (S)-(4′-(benzo[d]thiazol-2-yl)spiro[cyclopropane-1,7′-imidazo[4,5-c]pyridin]-5′(1′H,4′H,6′H)-yl)(2-(pyridin-2-yl)oxazol-5-yl)methanone]
23 | 1000 to 5000 | c1ccc2sc([C@H]3c4nc[nH]c4CCN3Cc3nccs3)nc2c1 [Example 1140, (R)-2-(5-(thiazol-2-ylmethyl)-4,5,6,7-tetrahydro-1H-imidazo[4,5-c]pyridin-4-yl)benzo[d]thiazole]

same assay, conditions: A375 cells expressing human R408W PAH; 24 hrs with compound; 13C-Tyrosine by LC-MS; average where tested multiple times; read-out: AC50

Row | Molecule | AC50 [nM]
24 | O=C(Cc1nncs1)N1CCc2[nH]cnc2C1c1nc2ccccc2s1 (centres unmarked) | 1000 to 5000
25 | COC1CN(C(=O)N2CCc3[nH]cnc3C2c2nc3ccccc3s2)C1 (centres unmarked) | 1000 to 5000
26 | Cc1nnc(C(=O)N2CCc3[nH]cnc3[C@H]2c2nc3cc(Br)ccc3[nH]2)s1 (single isomer, unassigned) | 1000 to 5000
27 | O=C(c1ccon1)N1CCc2[nH]cnc2C1c1nc2ccccc2s1 (centres unmarked) | > 5000

Continued, values first:

Row | AC50 [nM] | Molecule
28 | 1000 to 5000 | O=C(c1cnco1)N1CCc2[nH]cnc2[C@H]1c1nc2ccccc2[nH]1 [(S)-(4-(1H-benzo[d]imidazol-2-yl)-1,4,6,7-tetrahydro-5H-imidazo[4,5-c]pyridin-5-yl)(oxazol-5-yl)methanone]
29 | > 5000 | O=C(Cc1nccs1)N1CCc2[nH]cnc2C1c1nc2ccc(F)cc2s1 (centres unmarked)
30 | > 5000 | O=C(C1CC1)N1CCc2[nH]cnc2C1c1nc2cc(F)ccc2s1 (centres unmarked)
31 | > 5000 | Cn1ncc(C(=O)N2CCc3[nH]cnc3C2c2nc3c(F)cccc3s2)c1N (centres unmarked)
32 | > 5000 | Cc1nnc(CCC(=O)N2CCc3[nH]cnc3C2c2nc3ccc(Cl)cc3[nH]2)s1 (centres unmarked)
